The values that follow come from patent publication US9815796B2 (Merck Sharp & Dohme Corp., priority 2013, dated 2017).

Read-outs that look alike come from different tables or passages of the source.

The target of assay [1] is human PDE2A1 (Homo sapiens (Human), UniProt O00408). Put plainly: IMAP FP PDE selectivity panel, human PDE2A1. Format: biochemical. In outline:
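IMAP FP format: substrate 50 nM FAM-cAMP plus 1000 nM cGMP, enzyme (insect-cell GST-tagged human PDE2A1) at ~20% conversion, 60 min reaction at room temperature. Apparent inhibition constants calculated from parallel/perpendicular fluorescence with KM 10,000 nM.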

In assay [2] the target is Rhesus PDE2A3 (Macaca mulatta, UniProt B3VTJ2). The experiment in a line: PDE2 fluorescence polarization (IMAP FP) inhibition assay, rhesus enzyme. The format is biochemical, rhesus macaque. In short, it runs like this:
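IMAP FP (mP from parallel and perpendicular fluorescence against substrate-only control) was read ≥1 h after adding binding reagent. The preceding 60 min room-temperature reaction contained FAM-cAMP (50 nM) and cGMP (1 uM) in pH 7.2 Tris buffer with MgCl2 and DTT. Enzyme was supernatant of sonicated AD293 cells expressing rhesus PDE2A3; compounds were 3-fold titrated, DMSO 1% final.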
A general note: Fluorescence polarisation rises when a labelled molecule tumbles more slowly, as on binding a larger partner.

[3] abbreviates: Human PDE2, Lab B, read-out: Human PDE2 Ki (nM) - Lab B.
[4] abbreviates: Rhesus PDE2, Lab B, read-out: Rhesus PDE2 Ki (nM) - Lab B.
[5] abbreviates: Rhesus PDE2, Lab A, read-out: Rhesus PDE2 Ki (nM) - Lab A.
The mark [6] stands for this setting: Human PDE2, Lab A, read-out: Human PDE2 Ki (nM) - Lab A.

Chain of human PDE2A1 (O00408 other isoform, or with tags, fused parts or gaps): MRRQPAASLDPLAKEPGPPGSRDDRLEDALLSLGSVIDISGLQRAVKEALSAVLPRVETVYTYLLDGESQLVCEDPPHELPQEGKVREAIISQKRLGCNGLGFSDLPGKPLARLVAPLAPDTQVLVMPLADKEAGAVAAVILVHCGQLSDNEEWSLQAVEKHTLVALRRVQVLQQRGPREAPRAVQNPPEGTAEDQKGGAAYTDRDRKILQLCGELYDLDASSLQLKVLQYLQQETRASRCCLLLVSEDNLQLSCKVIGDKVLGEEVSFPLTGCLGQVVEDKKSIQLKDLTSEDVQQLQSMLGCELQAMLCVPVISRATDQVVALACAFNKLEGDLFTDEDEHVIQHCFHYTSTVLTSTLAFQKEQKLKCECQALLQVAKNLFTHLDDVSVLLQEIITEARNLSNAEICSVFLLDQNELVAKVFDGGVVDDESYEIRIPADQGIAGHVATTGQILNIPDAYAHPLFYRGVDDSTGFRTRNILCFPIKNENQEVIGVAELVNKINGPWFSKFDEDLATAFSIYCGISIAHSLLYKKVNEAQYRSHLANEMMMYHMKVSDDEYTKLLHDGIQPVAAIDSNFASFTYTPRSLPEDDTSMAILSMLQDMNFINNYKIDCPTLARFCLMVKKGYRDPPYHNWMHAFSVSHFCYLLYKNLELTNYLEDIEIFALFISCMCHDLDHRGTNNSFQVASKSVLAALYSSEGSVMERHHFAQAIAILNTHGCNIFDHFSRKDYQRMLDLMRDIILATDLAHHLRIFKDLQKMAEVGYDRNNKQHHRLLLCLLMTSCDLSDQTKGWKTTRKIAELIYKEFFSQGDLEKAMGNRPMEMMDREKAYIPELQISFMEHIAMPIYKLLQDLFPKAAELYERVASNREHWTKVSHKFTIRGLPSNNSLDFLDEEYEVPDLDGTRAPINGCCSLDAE
Chain of Rhesus PDE2A3 (B3VTJ2 1-941): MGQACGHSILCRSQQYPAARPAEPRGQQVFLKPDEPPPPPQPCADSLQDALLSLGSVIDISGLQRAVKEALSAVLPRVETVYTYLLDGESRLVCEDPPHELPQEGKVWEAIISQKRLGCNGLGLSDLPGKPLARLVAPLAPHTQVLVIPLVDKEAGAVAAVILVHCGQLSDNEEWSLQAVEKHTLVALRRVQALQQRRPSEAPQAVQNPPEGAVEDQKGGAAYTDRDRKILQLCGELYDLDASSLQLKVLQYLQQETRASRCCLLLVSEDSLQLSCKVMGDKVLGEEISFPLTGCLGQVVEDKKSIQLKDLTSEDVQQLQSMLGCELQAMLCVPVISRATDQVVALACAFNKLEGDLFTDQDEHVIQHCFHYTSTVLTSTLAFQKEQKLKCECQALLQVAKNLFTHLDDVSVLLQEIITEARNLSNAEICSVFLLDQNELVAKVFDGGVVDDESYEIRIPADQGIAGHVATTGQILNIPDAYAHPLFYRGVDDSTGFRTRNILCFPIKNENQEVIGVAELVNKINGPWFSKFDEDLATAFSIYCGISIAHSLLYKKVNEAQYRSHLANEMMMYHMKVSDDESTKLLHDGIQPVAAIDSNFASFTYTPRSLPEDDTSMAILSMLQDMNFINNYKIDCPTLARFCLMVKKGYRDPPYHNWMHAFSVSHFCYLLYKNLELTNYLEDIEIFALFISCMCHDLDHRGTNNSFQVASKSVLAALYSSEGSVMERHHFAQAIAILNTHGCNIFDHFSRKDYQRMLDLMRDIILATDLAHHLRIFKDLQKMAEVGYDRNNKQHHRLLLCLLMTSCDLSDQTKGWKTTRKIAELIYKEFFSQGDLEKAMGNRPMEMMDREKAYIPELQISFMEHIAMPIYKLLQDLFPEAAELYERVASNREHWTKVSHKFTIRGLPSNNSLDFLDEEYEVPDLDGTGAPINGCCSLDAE

Turning to `COc1ccc(Cc2nc(C(=O)N[C@@H](c3ccc(OC(F)(F)F)c(F)c3)C3CC3)cc(=O)[nH]2)cc1F` [Example 521, N-{(R)-cyclopropyl[3-fluoro-4-(trifluoromethoxy)phenyl]methyl}-2-(3-fluoro-4-methoxybenzyl)-6-oxo-1,6-dihydropyrimidine-4-carboxamide], the Ki (usually the dissociation constant of the complex between target and ligand, obtained from inhibition or displacement) in assay [1] (setting [3]) worked out at 2.2 nM; in assay [2] (setting [4]), 2.3 nM.
For `C[C@@H](NC(=O)c1cc(=O)[nH]c(-c2ccccc2)n1)c1ccc(N(C)C)cc1` [Example 374, N-{(1R)-1-[4-(dimethylamino)phenyl]ethyl}-6-oxo-2-phenyl-1,6-dihydropyrimidine-4-carboxamide], the Ki in assay [1] (setting [3]) worked out at 33 nM; in assay [2] (setting [5]) it was 24 nM; in assay [2] (setting [4]), 36 nM.
Consider `CC(NC(=O)c1cc(=O)[nH]c(-c2ccccc2)n1)c1ccc(C2CC2)cc1` (stereo not shown) [Example 164, N-[1-(4-cyclopropylphenyl)ethyl]-6-oxo-2-phenyl-1,6-dihydropyrimidine-4-carboxamide], for which the Ki in assay [1] (setting [6]) worked out at 9.4 nM; in assay [2] (setting [5]), 9 nM.
As to `CC[C@@H](NC(=O)c1cc(=O)[nH]c(-c2ccccc2)n1)c1ccc(OC(F)(F)F)cc1` [Example 179, 6-oxo-2-phenyl-N-{(1R)-1-[4-(trifluoromethoxy)phenyl]propyl}-1,6-dihydropyrimidine-4-carboxamide], the Ki was determined as 2.2 nM in assay [1] (setting [6]) and 4 nM in assay [2] (setting [5]).
For the compound `COc1ccc(Cc2nc(C(=O)N[C@@H](c3ccc(C(F)(F)F)cc3)C(C)(C)C)cc(=O)[nH]2)cc1F` [Example 457, N-{(1R)-2,2-dimethyl-1-[4-(trifluoromethyl)phenyl]propyl}-2-(3-fluoro-4-methoxybenzyl)-6-oxo-1,6-dihydropyrimidine-4-carboxamide], the Ki in assay [1] (setting [3]) was 0.64 nM; in assay [2] (setting [4]), 0.68 nM.
On to `O=C(N[C@H](CC(F)(F)F)c1ccc(C(F)(F)F)cc1)c1cc(=O)[nH]c(-c2ccccc2)n1` [Example 353, 6-oxo-2-phenyl-N-{(1R)-3,3,3-trifluoro-1-[4-(trifluoromethyl)phenyl]propyl}-1,6-dihydropyrimidine-4-carboxamide], for which the results for the Ki in assay [1] (setting [3]), in assay [2] (setting [5]) and in assay [2] (setting [4]) were 21 nM, roughly 9.2 nM and 23 nM, respectively.
As for `Cc1nc(C(=O)NC2(c3ccc(C(F)(F)F)c(F)c3)CC2)cc(=O)[nH]1` [Example 44, N-{1-[3-fluoro-4-(trifluoromethyl)phenyl]cyclopropyl}-2-methyl-6-oxo-1,6-dihydropyrimidine-4-carboxamide], the Ki in assay [1] (setting [6]) is 10 nM; in assay [1] (setting [3]), 16 nM; in assay [2] (setting [5]), 17 nM; in assay [2] (setting [4]), 16 nM.
With `O=C(NCc1ccc(C2CC2)cc1)c1cc(=O)[nH]c(-c2ccccc2)n1` [Example 182, N-(4-cyclopropylbenzyl)-6-oxo-2-phenyl-1,6-dihydropyrimidine-4-carboxamide], the Ki amounted to 118 nM in assay [1] (setting [6]) and 141 nM in assay [2] (setting [5]).
For `O=C(NC1(c2ccc(OC(F)(F)F)c(F)c2)CC1)c1cc(=O)[nH]c(-c2ccccc2)n1` [Example 157, N-{1-[3-fluoro-4-(trifluoromethoxy)phenyl]cyclopropyl}-6-oxo-2-phenyl-1,6-dihydropyrimidine-4-carboxamide] the same measures were 3.1 nM and 4.8 nM.
For `COc1ccc(Cc2nc(C(=O)N[C@H](C)c3ccc(C(F)(F)F)cc3)cc(=O)[nH]2)cc1OC` [Example 4, 2-(3,4-dimethoxybenzyl)-6-oxo-N-{(1R)-1-[4-(trifluoromethyl)phenyl]ethyl}-1,6-dihydropyrimidine-4-carboxamide] the same measures were 0.52 nM and 0.56 nM.
Turning to `COc1ccc(C(C)(C)c2nc(C(=O)N[C@@H](c3ccc(SC(F)(F)F)cc3)C3CC3)cc(=O)[nH]2)cc1` [Example 500, N-[(R)-cyclopropyl{4-[(trifluoromethyl)sulfanyl]phenyl}methyl]-2-[1-(4-methoxyphenyl)-1-methylethyl]-6-oxo-1,6-dihydropyrimidine-4-carboxamide], the Ki in assay [1] (setting [3]) came to 74 nM; in assay [2] (setting [4]), 79 nM.
For `COc1ccc(C(C)(C)c2nc(C(=O)N[C@@H](c3ccc(OC(F)(F)F)c(F)c3)C(C)(C)C)cc(=O)[nH]2)cc1` [Example 487, N-{(1R)-1-[3-fluoro-4-(trifluoromethoxy)phenyl]-2,2-dimethylpropyl}-2-[1-(4-methoxyphenyl)-1-methylethyl]-6-oxo-1,6-dihydropyrimidine-4-carboxamide] the same measures were 63 nM and 61 nM.
For `COc1ccc(C(C)(C)c2nc(C(=O)N[C@@H](c3ccc(C(F)(F)F)cc3)C3CC3)cc(=O)[nH]2)cc1` [Example 502, N-{(R)-cyclopropyl[4-(trifluoromethyl)phenyl]methyl}-2-[1-(4-methoxyphenyl)-1-methylethyl]-6-oxo-1,6-dihydropyrimidine-4-carboxamide] the same measures were 75 nM and 115 nM.
For `CC[C@@H](NC(=O)c1cc(=O)[nH]c(C(C)(C)c2ccc(OC)cc2)n1)c1ccc(SC(F)(F)F)c(F)c1` [Example 496, N-[(1R)-1-{3-fluoro-4-[(trifluoromethyl)sulfanyl]phenyl}propyl]-2-[1-(4-methoxyphenyl)-1-methylethyl]-6-oxo-1,6-dihydropyrimidine-4-carboxamide] the same measures were 40 nM and 38 nM.
With `CC(NC(=O)c1cc(=O)[nH]c(C2CC2)n1)c1ccc(C(F)(F)F)cc1Cl` (stereo not shown) [Example 233, N-{1-[2-chloro-4-(trifluoromethyl)phenyl]ethyl}-2-cydopropyl-6-oxo-1,6-dihydropyrimidine-4-carboxamide], the results for the Ki in assay [1] (setting [6]) and in assay [2] (setting [5]) were 78 nM and 124 nM, respectively.
For the compound `Cc1nc(C(=O)N[C@@H](c2ccc(OC(F)(F)F)cc2)C(C)(C)C)cc(=O)[nH]1` [Example 57, (R)-N-(2,2-dimethyl-1-(4-(trifluoromethoxy)phenyl)propyl)-2-methyl-6-oxo-1,6-dihydropyrimidine-4-carboxamide], the Ki amounted to 3.9 nM in assay [1] (setting [3]) and 5.8 nM in assay [2] (setting [4]).
As to `O=C(N[C@@H](c1ccc(OC(F)(F)F)cc1)C1CC1)c1cc(=O)[nH]c(C2CC2)n1` [Example 211, 2-cyclopropyl-N-{(R)-cyclopropyl[4-(trifluoromethoxy)phenyl]methyl}-6-oxo-1,6-dihydropyrimidine-4-carboxamide], the Ki in assay [1] (setting [6]) came to 2.5 nM; in assay [2] (setting [5]) it was 7.1 nM.
As to `O=C(NC1(c2ccc(OC(F)(F)F)c(F)c2)CC1)c1cc(=O)[nH]c(-c2ncccn2)n1` [Example 81, N-{1-[3-fluoro-4-(trifluoromethoxy)phenyl]cyclopropyl}-6-oxo-1,6-dihydro-2,2′-bipyrimidine-4-carboxamide], the Ki was determined as 25 nM in assay [1] (setting [3]), 23 nM in assay [2] (setting [5]) and 17 nM in assay [2] (setting [4]).
For the compound `CC[C@@H](NC(=O)c1cc(=O)[nH]c(-c2ncccn2)n1)c1ccc(OC(F)(F)F)cc1` [Example 106, 6-oxo-N-{(1R)-1-[4-(trifluoromethoxy)phenyl]propyl}-1,6-dihydro-2,2′-bipyrimidine-4-carboxamide], the Ki in assay [1] (setting [6]) is 5.6 nM; in assay [2] (setting [5]), 12 nM.
As to `CC[C@@H](NC(=O)c1cc(=O)[nH]c(Cc2ccc(OC)c(F)c2)n1)c1ccc(SC(F)(F)F)c(F)c1` [Example 519, 2-(3-fluoro-4-methoxybenzyl)-N-[(1R)-1-{3-fluoro-4-[(trifluoromethyl)sulfanyl]phenyl}propyl]-6-oxo-1,6-dihydropyrimidine-4-carboxamide], the figures for the Ki in assay [1] (setting [3]) and in assay [2] (setting [4]) were 2 nM and 1.7 nM, respectively.
For `Cc1nc(C(=O)N[C@@H](c2ccc(C3CC3)cc2)C(C)(C)C)cc(=O)[nH]1` [Example 63, (R)-N-(1-(4-cyclopropylphenyl)-2,2-dimethylpropyl)-2-methyl-6-oxo-1,6-dihydropyrimidine-4-carboxamide] the same measures were 2 nM and 1.9 nM.
With `Cc1nc(C(=O)NC2(c3ccc(S(F)(F)(F)(F)F)cc3)CC2)cc(=O)[nH]1` [Example 622, 2-methyl-6-oxo-N-{1-[4-(pentafluoro-λ^6-sulfanyl)phenyl]cyclopropyl}-1,6-dihydropyrimidine-4-carboxamide], the Ki in assay [1] (setting [3]) was 42 nM; in assay [2] (setting [4]), 32 nM.
Turning to `CC(NC(=O)c1cc(=O)[nH]c(-c2ccccc2)n1)c1ccc(C(F)(F)F)cc1Cl` (stereo not shown) [Example 147, N-{1-[2-chloro-4-(trifluoromethyl)phenyl]ethyl}-6-oxo-2-phenyl-1,6-dihydropyrimidine-4-carboxamide], the results for the Ki in assay [1] (setting [6]) and in assay [2] (setting [5]) were 35 nM and 51 nM, respectively.
Turning to `Cc1nc(C(=O)N[C@H](C)c2ccc(S(F)(F)(F)(F)F)cc2)cc(=O)[nH]1` [Example 37, 2-methyl-6-oxo-N-{(1R)-1-[4-(pentafluoro-λ^6-sulfanyl)phenyl]ethyl}-1,6-dihydropyrimidine-4-carboxamide], the inhibition constant (Ki) is 14 nM in assay [1] (setting [6]), 27 nM in assay [1] (setting [3]), 17 nM in assay [2] (setting [5]) and 19 nM in assay [2] (setting [4]).
For the compound `CC[C@@H](NC(=O)c1cc(=O)[nH]c(COC)n1)c1ccc(OC(F)(F)F)cc1` [Example 119, 2-(methoxymethyl)-6-oxo-N-{(1R)-1-[4-(trifluoromethoxy)phenyl]propyl}-1,6-dihydropyrimidine-4-carboxamide], the results for the Ki in assay [1] (setting [6]), in assay [2] (setting [5]) and in assay [2] (setting [4]) were 17 nM, 74 nM and 53 nM, respectively.
